In test [1] the target is soluble human BACE1 catalytic domain (Homo sapiens (Human), UniProt P56817). The test is described as follows: BACE1 HTRF FRET Assay. Particulars: Ki calculated from IC50 using the Cheng-Prusoff equation; QSY7-APPswe-Eu substrate, pH 5.0. Type of test: biochemical. An excerpt: Reagents: Na^+-Acetate pH 5.0; 1% Brij-35; Glycerol; Dimethyl Sulfoxide (DMSO); Recombinant human soluble BACE1 catalytic domain (>95% pure); APP Swedish mutant peptide substrate (QSY7-APP^swe-Eu): QSY7-[…]-Europium-amide (SEQ ID 1).
Sequence of soluble human BACE1 catalytic domain (P56817 75-416): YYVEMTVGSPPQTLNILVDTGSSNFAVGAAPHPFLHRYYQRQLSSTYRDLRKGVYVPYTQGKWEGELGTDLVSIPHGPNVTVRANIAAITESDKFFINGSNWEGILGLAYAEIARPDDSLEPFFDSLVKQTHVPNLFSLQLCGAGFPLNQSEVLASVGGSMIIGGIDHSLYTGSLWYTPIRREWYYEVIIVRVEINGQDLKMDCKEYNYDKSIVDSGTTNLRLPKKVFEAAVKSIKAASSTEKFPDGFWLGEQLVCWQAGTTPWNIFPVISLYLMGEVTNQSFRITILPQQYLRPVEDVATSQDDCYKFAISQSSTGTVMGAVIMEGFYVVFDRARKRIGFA
A homogeneous time-resolved FRET assay can be used to determine IC50 values for inhibitors of the soluble human BACE1 catalytic domain. This assay monitors the increase of 620 nm fluorescence that resulted from BACE1 cleavage of an APPswedish APP^swe mutant peptide FRET substrate (QSY7-[…]-Europium-amide (SEQ ID 1)). This substrate contains an N-terminal QSY7 moiety that serves as a quencher of the C-terminal Europium fluorophore (620 nm Em). […] Inhibition of BACE1 cleavage of the QSY7-APP^swe-Eu substrate by inhibitors is manifested as a suppression of 620 nm fluorescence.
Varying concentrations of inhibitors at 3× the final desired concentration in a volume of 10 ul are preincubated with purified human BACE1 catalytic domain (3 nM in 10 μl) for 30 minutes at 30° C. in reaction buffer containing 20 mM Na-Acetate pH 5.0, 10% glycerol, 0.1% Brij-35 and 7.5% DSMO. Reactions are initiated by addition of 10 μl of 600 nM QSY7-APP^swe-Eu substrate (200 nM final) to give a final reaction volume of 30 μl in a 384 well Nunc HTRF plate. The reactions are incubated at 30° C. for 1.5 hours. The 620 nm fluorescence is then read on a Rubystar HTRF plate reader (BMG Labtechnologies) using a 50 millisecond delay followed by a 400 millisecond acquisition time window. Inhibitor IC50 values are derived from non-linear regression analysis of concentration response curves.

Test [2] deals with purified human autoBACE-2 (Homo sapiens, UniProt Q9Y5Z0). Kind of test: BACE-2 Assay (BACE-HTRF assay). The test is classed as biochemical. Particulars: Ki calculated from IC50 using the Cheng-Prusoff equation, pH 5.0, read-out: BACE2 Ki. Here is the method:
DMSO is present at 5% final concentration in the assay. Following laser excitation of sample wells at 320 nm, the fluorescence signal at 620 nm is collected for 400 ms following a 50 μs delay on a RUBYstar HTRF plate reader (BMG Labtechnologies). Raw RFU data is normalized to maximum (1.0 nM BACE/DMSO) and minimum (no enzyme/DMSO) RFU values. […] The Ki values are calculated from the IC50 using the Cheng-Prusoff equation.

Where [3] appears, read: QSY7-EISEVNLDAEFC-Eu-amide substrate.

Ki data for 22 compounds are collected here from patent US9745324B2, “Iminothiadiazepane dioxide compounds as BACE inhibitors, compositions, and their use” (Merck Sharp & Dohme Corp., priority 2013, dated 2017).

Read-outs that look alike come from different tables or passages of the source.

Sequence of purified human autoBACE-2 (Q9Y5Z0 63-518 limits assumed): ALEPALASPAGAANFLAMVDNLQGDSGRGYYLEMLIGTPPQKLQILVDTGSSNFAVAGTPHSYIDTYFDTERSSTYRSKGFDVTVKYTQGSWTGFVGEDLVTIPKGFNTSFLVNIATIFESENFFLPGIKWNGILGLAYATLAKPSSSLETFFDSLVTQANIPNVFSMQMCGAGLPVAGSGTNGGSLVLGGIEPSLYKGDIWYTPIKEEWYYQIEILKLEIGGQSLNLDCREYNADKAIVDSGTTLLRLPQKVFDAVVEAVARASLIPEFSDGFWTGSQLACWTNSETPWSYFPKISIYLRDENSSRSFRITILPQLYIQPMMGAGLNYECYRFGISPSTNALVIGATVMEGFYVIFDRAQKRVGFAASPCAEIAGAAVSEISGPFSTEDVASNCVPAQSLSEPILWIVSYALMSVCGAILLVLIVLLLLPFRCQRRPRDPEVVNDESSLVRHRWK

In general, Ki refers to the equilibrium dissociation constant of an inhibitor or competing ligand from its target. On to `CN1C[C@@](C)(c2cc(NC(=O)c3ncc(Cl)cc3F)ccc2F)NC(=N)C(C)(C)S1(=O)=O` [Example 23, 5-chloro-3-fluoro-N-{4-fluoro-3-[(4R)-6-imino-2,4,7,7-tetramethyl-1,1-dioxido-1,2,5-thiadiazepan-4-yl]phenyl}pyridine-2-carboxamide], for which the Ki in test [1] is 21 nM; in test [2] (setting [3]), 6.4 nM.

Regarding `COCCC(=O)Nc1ccc(F)c([C@]2(C)CN(C)S(=O)(=O)C(C)(C)C(=N)N2)c1` [Example 24, N-{4-fluoro-3-[(4R)-6-imino-2,4,7,7-tetramethyl-1,1-dioxido-1,2,5-thiadiazepan-4-yl]phenyl}-3-methoxypropanamide], the Ki in test [1] is > 9760 nM; in test [2] (setting [3]), 4090 nM.

As to `COCC(=O)Nc1ccc(F)c([C@]2(C)CN(C)S(=O)(=O)C(C)(C)C(=N)N2)c1` [Example 25, N-{4-fluoro-3-[(4R)-6-imino-2,4,7,7-tetramethyl-1,1-dioxido-1,2,5-thiadiazepan-4-yl]phenyl}-2-methoxyacetamide], the results for the inhibition constant (Ki) in test [1] and in test [2] (setting [3]) were 756 nM and 122 nM, respectively.

As to `CN1C[C@@](C)(c2cc(NC(=O)c3cn(C)nc3C(F)(F)F)ccc2F)NC(=N)C(C)(C)S1(=O)=O` [Example 26, N-{4-fluoro-3-[(4R)-6-imino-2,4,7,7-tetramethyl-1,1-dioxido-1,2,5-thiadiazepan-4-yl]phenyl}-1-methyl-3-(trifluoromethyl)-1H-pyrazole-4-carboxamide], the figures for the Ki in test [1] and in test [2] (setting [3]) were 8790 nM and 6510 nM, respectively.

In the case of `CN1C[C@@](C)(c2cc(NC(=O)c3cn4ccsc4n3)ccc2F)NC(=N)C(C)(C)S1(=O)=O` [Example 27, N-{4-fluoro-3-[(4R)-6-imino-2,4,7,7-tetramethyl-1,1-dioxido-1,2,5-thiadiazepan-4-yl]phenyl}imidazo[2,1-b][1,3]thiazole-6-carboxamide], the values for the Ki in test [1] and in test [2] (setting [3]) were 285 nM and 46 nM, respectively.

Take `CN1C[C@@](C)(c2cc(NC(=O)C(F)F)ccc2F)NC(=N)C(C)(C)S1(=O)=O` [Example 28, 2,2-difluoro-N-{4-fluoro-3-[(4R)-6-imino-2,4,7,7-tetramethyl-1,1-dioxido-1,2,5-thiadiazepan-4-yl]phenyl}acetamide]: the results for the inhibition constant Ki in test [1] and in test [2] (setting [3]) were 1200 nM and 354 nM, respectively.

For `CO[C@H](C)C(=O)Nc1ccc(F)c([C@]2(C)CN(C)S(=O)(=O)C(C)(C)C(=N)N2)c1` [Example 29, (2R)-N-{4-fluoro-3-[(4R)-6-imino-2,4,7,7-tetramethyl-1,1-dioxido-1,2,5-thiadiazepan-4-yl]phenyl}-2-methoxypropanamide], the results for the Ki in test [1] and in test [2] (setting [3]) were 4680 nM and 798 nM, respectively.

On to `CN1C[C@@](C)(c2cc(NC(=O)CC3CC3)ccc2F)NC(=N)C(C)(C)S1(=O)=O` [Example 30, 2-cyclopropyl-N-{4-fluoro-3-[(4R)-6-imino-2,4,7,7-tetramethyl-1,1-dioxido-1,2,5-thiadiazepan-4-yl]phenyl}acetamide], for which the Ki in test [1] was > 9760 nM; in test [2] (setting [3]) it was 2190 nM.

`CN1C[C@@](C)(c2cc(NC(=O)c3ncc(C(F)(F)F)cn3)ccc2F)NC(=N)C(C)(C)S1(=O)=O` [Example 31, N-{4-fluoro-3-[(4R)-6-imino-2,4,7,7-tetramethyl-1,1-dioxido-1,2,5-thiadiazepan-4-yl]phenyl}-5-(trifluoromethyl)pyrimidine-2-carboxamide]: the Ki in test [1] was 189 nM; in test [2] (setting [3]), 202 nM.

As for `Cc1nc(C(=O)Nc2ccc(F)c([C@]3(C)CN(C)S(=O)(=O)C(C)(C)C(=N)N3)c2)c(C)o1` [Example 32, N-{4-fluoro-3-[(4R)-6-imino-2,4,7,7-tetramethyl-1,1-dioxido-1,2,5-thiadiazepan-4-yl]phenyl}-2,5-dimethyl-1,3-oxazole-4-carboxamide], the Ki in test [1] is 165 nM; in test [2] (setting [3]), 54 nM.

As for `CN1C[C@@](C)(c2cc(NC(=O)C3CC3)ccc2F)NC(=N)C(C)(C)S1(=O)=O` [Example 33, N-{4-fluoro-3-[(4R)-6-imino-2,4,7,7-tetramethyl-1,1-dioxido-1,2,5-thiadiazepan-4-yl]phenyl}cyclopropanecarboxamide], the Ki in test [1] is 4350 nM; in test [2] (setting [3]), 1030 nM.

Regarding `CO[C@@H](C)C(=O)Nc1ccc(F)c([C@]2(C)CN(C)S(=O)(=O)C(C)(C)C(=N)N2)c1` [Example 34, (2S)-N-{4-fluoro-3-[(4R)-6-imino-2,4,7,7-tetramethyl-1,1-dioxido-1,2,5-thiadiazepan-4-yl]phenyl}-2-methoxypropanamide], the values for the Ki in test [1] and in test [2] (setting [3]) were 3060 nM and 1120 nM, respectively.

`CC(=O)Nc1ccc(F)c([C@]2(C)CN(C)S(=O)(=O)C(C)(C)C(=N)N2)c1` [Example 35, N-{4-fluoro-3-[(4R)-6-imino-2,4,7,7-tetramethyl-1,1-dioxido-1,2,5-thiadiazepan-4-yl]phenyl}acetamide]: the inhibition constant (Ki) is 5930 nM in test [1] and 917 nM in test [2] (setting [3]).

Take `C#CCOc1ccc(C(=O)Nc2ccc(F)c([C@]3(C)CN(C)S(=O)(=O)C(C)(C)C(=N)N3)c2)nc1` [Example 36, N-{4-fluoro-3-[(4R)-6-imino-2,4,7,7-tetramethyl-1,1-dioxido-1,2,5-thiadiazepan-4-yl]phenyl}-5-(prop-2-yn-1-yloxy)pyridine-2-carboxamide]: the Ki in test [1] is 15 nM; in test [2] (setting [3]), 195 nM.

As to `CN1C[C@@](C)(c2cc(NC(=O)c3cnc(C(F)(F)F)cn3)ccc2F)NC(=N)C(C)(C)S1(=O)=O` [Example 37, N-{4-fluoro-3-[(4R)-6-imino-2,4,7,7-tetramethyl-1,1-dioxido-1,2,5-thiadiazepan-4-yl]phenyl}-5-(trifluoromethyl)pyrazine-2-carboxamide], the Ki in test [1] was 153 nM; in test [2] (setting [3]) it was 361 nM.

For the compound `CN1C[C@@](C)(c2cc(NC(=O)c3ccc(OCF)cn3)ccc2F)NC(=N)C(C)(C)S1(=O)=O` [Example 38, N-{4-fluoro-3-[(4R)-6-imino-2,4,7,7-tetramethyl-1,1-dioxido-1,2,5-thiadiazepan-4-yl]phenyl}-5-(fluoromethoxy)pyridine-2-carboxamide], the figures for the Ki in test [1] and in test [2] (setting [3]) were 37 nM and 46 nM, respectively.

With `C#CCOc1cnc(C(=O)Nc2ccc(F)c([C@]3(C)CN(C)S(=O)(=O)C(C)(C)C(=N)N3)c2)cn1` [Example 39, N-{4-fluoro-3-[(4R)-6-imino-2,4,7,7-tetramethyl-1,1-dioxido-1,2,5-thiadiazepan-4-yl]phenyl}-5-(prop-2-yn-1-yloxy)pyrazine-2-carboxamide], the Ki in test [1] is 2.3 nM; in test [2] (setting [3]) it was 34.3 nM.

Take `CN1C[C@@](C)(c2cc(OCc3ccc(C#N)cc3)ccc2F)NC(=N)C(C)(C)S1(=O)=O` [Example 40, (R)-4-((4-fluoro-3-(6-imino-2,4,7,7-tetramethyl-1,1-dioxido-1,2,5-thiadiazepan-4-yl)phenoxy)methyl)benzonitrile]: the Ki in test [1] was 651 nM; in test [2] (QSY7-[…]-Eu-amide substrate), 4050 nM.

On to `CN1C[C@@](C)(c2cc(Nc3nccc4cc(C#N)cnc34)ccc2F)NC(=N)C(C)(C)S1(=O)=O` [Example 41, (R)-8-((4-fluoro-3-(6-imino-2,4,7,7-tetramethyl-1,1-dioxido-1,2,5-thiadiazepan-4-yl)phenyl)amino)-1,7-naphthyridine-3-carbonitrile], for which the Ki in test [1] is 20 nM; in test [2] (QSY7-[…]-Eu-amide substrate) it was 16 nM.

`CN1C[C@@](C)(c2cc(Nc3nccc4cc(Br)cnc34)ccc2F)NC(=N)C(C)(C)S1(=O)=O` [Example 42, (R)-4-(5-((3-bromo-1,7-naphthyridin-8-yl)amino)-2-fluorophenyl)-6-imino-2,4,7,7-tetramethyl-1,2,5-thiadiazepane 1,1-dioxide]: the results for the Ki in test [1] and in test [2] (QSY7-[…]-Eu-amide substrate) were 18 nM and 9 nM, respectively.

Consider `COc1cnc2c(Nc3ccc(F)c([C@]4(C)CN(C)S(=O)(=O)C(C)(C)C(=N)N4)c3)nccc2c1` [Example 43, (R)-4-(2-fluoro-5-((3-methoxy-1,7-naphthyridin-8-yl)amino)phenyl)-6-imino-2,4,7,7-tetramethyl-1,2,5-thiadiazepane 1,1-dioxide], for which the Ki is 209 nM in test [1] and 240 nM in test [2] (QSY7-[…]-Eu-amide substrate).

As for `CN1C[C@@](C)(c2cc(Nc3nccn4ccnc34)ccc2F)NC(=N)C(C)(C)S1(=O)=O` [Example 44, (R)-4-(2-fluoro-5-(imidazo[1,2-a]pyrazin-8-ylamino)phenyl)-6-imino-2,4,7,7-tetramethyl-1,2,5-thiadiazepane 1,1-dioxide], the results for the Ki in test [1] and in test [2] (QSY7-[…]-Eu-amide substrate) were 1350 nM and 270 nM, respectively.
